These results are taken from patent publication US20190290614A1, “Methods for Reducing Recurrence of Tumors” (Beth Israel Deaconess Medical Center, Inc., priority 2016, published 2019).

SMILES strings stand for the structures.

For data set [1], the system named is Lewis Lung carcinoma (LLC). The data set is described as follows: spontaneous LLC lung metastasis model after primary tumor resection (survival). Format: in vivo, mice. To be noted: for mimicked the action of ketorolac in prolonging survival after primary LLC tumor resection: FR122047 20, TFAP 30, SC-560 30, indomethacin 3 mg/kg i.p., celecoxib 60 mg/kg oral gavage, FIG. 1B. An excerpt: Doses were selected based on previous publications by the present inventors and others, and/or by analogy to the human dose.

The conditions of data set [2]: used alone; single subcutaneous injection before the resection; cited from earlier work.
Data set [3] relates to MMTV-PyMT breast tumor. The data set is described as follows: surgery-stimulated (laparotomy) spontaneous tumor model, genetically engineered murine breast tumor model. Format: in vivo. The note with it: FIG. 1C.
Data set [4] relates to E0771 breast cancer. The data set is described as follows: spontaneous E0771 breast cancer metastasis model after primary tumor resection. Format: in vivo. To be noted: pre-operative; FIG. 1D.
The test system of data set [5] is B16F10 melanoma. The data set is described as follows: laparotomy-stimulated primary tumor dormancy escape, B16F10. Format: in vivo. To be noted: pre-surgical administration; 1×10^3 cells; FIG. 2A. An excerpt: (§1) (A-C) Surgery (i.e. laparotomy) stimulated primary tumor dormancy escape in a B16F10 melanoma (1×10^3 cells), Lewis lung carcinoma (LLC 1×10^4 cells), and EL4 lymphoma (1×10^4 cells). Images show representative tumors on Day 35 post-injection; Scale bar, 1 cm.
(§2) Surgery (i.e., laparotomy, which is a surgical procedure involving a large incision through the abdominal wall to gain access into the abdominal cavity, also known as a celiotomy) stimulated primary tumor dormancy escape in a B16F10 melanoma (1×10^3 cells, see Kalpainen et al., PLoS One. 2007 Feb. 28; 2(2):e260 and Panigraphy et al., J Clin Invest. 2012 January; 122(1):178-91; FIG. 2A), Lewis lung carcinoma (LLC 1×10^4 cells, FIG. 2B), and EL4 lymphoma (1×10^4 cells, FIG. 2C).

Data set [6] deals with Lewis lung carcinoma (LLC). The experiment in a line: laparotomy-stimulated primary tumor dormancy escape, LLC. Format: in vivo. To be noted: pre-surgical administration; 1×10^4 cells; FIG. 2B.
Excerpt: as §1, §2

Data set [7] deals with EL4 lymphoma. The data set is described as follows: laparotomy-stimulated primary tumor dormancy escape, EL4. To be noted: pre-surgical administration; 1×10^4 cells; FIG. 2C. The data set is classed as in vivo.
Excerpt: as §1, §2

For data set [8], the system named is T241 fibrosarcoma. The data set is described as follows: liver biopsy-stimulated lung metastasis post primary tumor resection. Format: in vivo. The note with it: pre-surgical administration; FIG. 2D. An excerpt:
(D) Liver biopsy stimulated lung metastasis post primary tumor resection (T241 fibrosarcoma).
In addition, liver biopsy alone stimulated lung metastasis post primary tumor resection in a T241 fibrosarcoma model (O'Reilly et al., Cell. 1994 Oct. 21; 79(2):315-28 and Panigraphy et al., J Clin Invest. 2012 January; 122(1):178-91).

Data set [9] deals with LLC. The experiment in a line: LLC tumor resection in nude athymic mice. Format: in vivo, nude athymic C57BL/6 mice. The note with it: administered prior to LLC tumor resection; FIG. 3A. As to the method:
To determine whether the effects of Ketorolac were due to actions on the immune system, the effects of ketorolac administered prior to LLC tumor resection was determined in nude athymic C57BL/6 mice, SCID mice, and Rag1 KO Mice.

Data set [10] deals with human lung tumor (H460). The data set is described as follows: human lung tumor primary tumor resection in SCID mice. The data set is classed as in vivo. To be noted: FIG. 3B.
Data set [11] deals with B16F10. The data set is described as follows: laparotomy-induced tumor dormancy escape in Rag1 KO mice. Format: in vivo. The note with it: B16F10, 1×10^3; FIG. 3C.
For data set [12], the system named is LLC. The data set is described as follows: second tumor challenge 200 days after LLC tumor resection. The data set is classed as in vivo, immunocompetent mice (C57BL6). To be noted: 200 days post LLC tumor resection, ketorolac preoperatively; FIG. 4A. As to the method:
To determine whether perioperative COX-1 inhibition produces a durable immune response to the cancer, immunocompetent mice (C57BL6) at 200 days after undergoing LLC tumor resection during which they were administered ketorolac preoperatively, were given a second tumor challenge with the same tumor types (LLC).

Data set [13] deals with B16F10 melanoma. The experiment in a line: third tumor challenge with a different tumor-type. Format: in vivo, immunocompetent mice (C57BL6). The note with it: same mice, FIG. 4A.
For data set [14], the system named is LLC. The data set is described as follows: LLC tumor resection in WT and COX-2 KO mice (metastasis). The data set is classed as in vivo. To be noted: administered prior to surgery, FIG. 4B.
Data set [15] deals with LLC tumor cells. The experiment in a line: Hematoxylin & Eosin analysis of lungs after LLC tumor resection. Format: in vivo, mice. The note with it: 240 days post-surgery; i.p. 7.5 mg/kg 2 hours prior to surgery; abundant LLC tumor cells at Day 0. An excerpt:
Representative micrographs of 4 different mice per group (total of 10 mice/group).

Data set [16] deals with prostate cancer. To be noted: after radical prostatectomy for prostate cancer; retrospective; cited from earlier work.
The conditions of data set [17]: human, in vivo; cited from earlier work.
The conditions of data set [18]: in vivo; cited from earlier work.

With `COc1ccc(-c2nc(C(=O)N3CCN(C)CC3)sc2-c2ccc(OC)cc2)cc1.Cl` [FR122047, 1-[[4,5-bis(4-Methoxyphenyl)-2-thiazolyl]carbonyl]-4-methylpiperazine hydrochloride], the “mimicked the action of ketorolac in prolonging survival after primary LLC tumor resection” value in [1] is recorded as “mimicked the action of ketorolac”.
On to `Nc1ccc(NC(=O)c2ccc(C(F)(F)F)cc2)nc1` [TFAP, N-(5-amino-2-pyridinyl)-4-trifluoromethylbenzamide], for which the “mimicked the action of ketorolac in prolonging survival after primary LLC tumor resection” value in data set [1] is “mimicked the action of ketorolac”.
`CCc1cccc2c3c([nH]c12)C(CC)(CC(=O)O)OCC3` (centres unmarked) [etodolac]: in [2], the spontaneous postoperative metastasis result is “did not prevent spontaneous postoperative metastasis”.
With `O=C(c1ccccc1)c1ccc2n1CCC2C(=O)O` (centres unmarked) [ketorolac, ketorolac tromethamine], the “tumor micrometastasis by immunohistochemistry” value in [1] (180 to 200 days, micrometastasis present on day of tumor resection) is on record as “no evidence of tumor micrometastasis”. The “survival after primary tumor resection” value is listed as “prolonged survival” in data set [1] (pre-operative (2 hrs prior to surgery), ketorolac 7.5 mg/kg I.P., celecoxib 30 mg/kg bid po, FIG. 1A) and “prolonged survival” in data set [4]. For the same compound, in data set [1] (pre-operative, syngeneic LLC lung cancer model), the “"cured" (long term survival)” value was “approximately 50 % of mice”. In addition, the survival result in data set [3] is listed as “prolonged survival”. In addition, the “surgery-induced tumor dormancy escape” value in data set [5], in [6] and in [7] was “inhibited surgery-induced tumor dormancy escape” throughout. Also, the biopsy-stimulated lung metastasis entry in [8] is “inhibited this biopsy-stimulated lung metastasis”. For the same compound, the anti-metastatic activity result in [9] is given as “did not have anti-metastatic activity”. Besides, in data set [10], the “metastases after primary tumor resection” value is “did not inhibit metastases”. The “laparotomy-induced tumor dormancy escape” value in data set [11] is given as “did not inhibit laparotomy-induced tumor dormancy escape”. Also, the “response to second tumor challenge (LLC)” value in data set [12] is recorded as “resisted a second tumor challenge”. Besides, the “response to third tumor challenge (B16F10 melanoma)” value in [13] was “exhibited rapid tumor growth”. For the same compound, the tumor metastasis entry in data set [14] (COX-2 knockout (KO) mice) and in data set [14] (WT mice) was “prevented tumor metastasis” in each case. For the same compound, the “tumor cells in lungs (Hematoxylin & Eosin)” value in [15] is on record as “no tumor cells were detectable”. Besides, the “benefit of perioperative use” value in data set [16] is “no benefit”. Besides, the major side effect result in data set [17] is “increased bleeding time”.
Turning to `CN1CC[C@]23c4c5ccc(O)c4O[C@H]2[C@@H](O)C=C[C@H]3[C@H]1C5` [morphine], in data set [18], the “effect on angiogenesis, tumor cell proliferation, primary tumor growth and metastasis” value was “stimulates angiogenesis, tumor cell proliferation, primary tumor growth and metastasis”.
